Common to all, as to format: cell-based
The subject of assay [1] is human oesophageal squamous cell carcinoma cell line (KYSE-30). Description: MTT anti-proliferative assay, KYSE-30 (Examples 3-13). In general terms: Tetrazolium assays rely on reduction of a dye to a coloured formazan, in cell work by metabolically active cells.
Assay [2] has the same test system. The description is as above. The procedure: (§1) 5-phenylpenta-2,4-dienoic acid was assessed for its ability to modulate the viability and proliferation of human colorectal adenocarcinoma cells (DLD-1); human colon cancer cell line (HCT-116); human gastric carcinoma cell line (NCI-N87); and human oesophageal squamous cell carcinoma cell line (KYSE-30) as assessed by the MTT assay. The positive control, 5-fluorouracil (5-FU) was included at three concentrations; in addition to an unsupplemented cell control as a negative control in the study. The 5-phenylpenta-2,4-dienoic acid was a genuine standard with chemical structure confirmed by NMR and MS.
(§2) The four human gastrointestinal carcinoma cell lines were revived from cryostorage and cultured in the presence of the test and reference samples. An MTT assay was then performed on the cultures to determine the effect of the samples on the cell viability and proliferation.
(§3) The test sample 5-phenylpenta-2,4-dienoic acid, and all other test samples in Examples 4-12 (except tectochrysln) were Initially dissolved in pure ethanol to a concentration of around 13.35 mg/ml. Tectochrysin was initially dissolved in triethylene glycol mono-methyl ether to the same concentration. Working solutions were then prepared from the stock solutions by dilution to 15% ethanol/Hanks Balanced Salt Solution (ETOH)/HBSS to a concentration of 2 mg/mL solids. In the assay the final concentration of the samples was 200 μg/ml with a final EtOH concentration of 1.5%. Final concentrations of test compounds and propolis prepared as above are as noted in Example 3.
(§4) • 1. Human colorectal adenocarcinoma cells (ATCC CCI-221, DLD-1)(ATCC, Bethesda, Md., USA) • 2. Human gastric carcinoma cells (ATCC CRL-5822, NCI-N87)(ATCC, Bethesda, Md., USA) • 3. Human oesophageal squamous cell carcinoma (ECACC, KYSE-30)(Sigma Aldrich, Auckland, NZ) • 4. Human colon carcinoma cells (ECACC HCT-116)(Sigma Aldrich, Auckland, NZ) • 5. Penicillin-streptomycin solution: 10000 units/ml penicillin, 10 mg/ml streptomycin in 0.9% NaCl (Sigma Cat #P-0781). Stored at −20° C. • 6. For DLD-1 cells: DMEM culture medium (Invitrogen Cat #12100-046). Stored at 4° C. • 7. For NCI-N87 cells: RPMI-1640 medium modified to contain 2 mM L-glutamine, 10 mM HEPES, 1 mM sodium pyruvate, 4500 mg/L glucose, and 1500 mg/L sodium bicarbonate (Sigma R6504). Stored at 4° C. • 8. For KYSE-410 cells: RPMI-1640 medium modified to contain 2 mM L-glutamine (Sigma R6504). Stored at 4° C. • 9. For HCT-116 cells: McCoy's 5A medium modified to contain 2 mM L-glutamine (Sigma M48792). Stored at 4° C. • 10. Trypsin-EDTA solution: 0.25% Trypsin/EDTA, Invitrogen Cat#15400054 (×10 in stock). • 11. Phosphate buffered saline (PBS) (Prepared by TBL). • 12. Hanks Balanced Salt Solution (HBSS). (GIBCO Cat No. 14185-052). Stored at 4° C. • 13. Foetal Bovine Serum (GIBCO Cat #10091-148). Stored at −20° C. • 14. MTT Reagent: 100 mg/vial, (SIGMA Cat. No. M-2128) dissolved in PBS at 10 mg/ml and stored at −20° C. 5 mg/ml MTT solution will be prepared in PBS and stored at 4° C. as working solution. • 15. MTT lysis buffer: 10% sodium dodecyl sulphate (SDS)/45% Dimethyl Formamide (20 g SDS will be dissolved in 100 ml of double-distilled water (DDW), and 90 ml of Dimethyl Formamide will be added to the SDS solution). The pH will be adjusted to 4.7 by glacial acetic acid, and DDW added up to a final volume of 200 ml. • 16. 5-Fluorouracil (5-FU), (Sigma Cat. No. F-6627). Three working solutions will be prepared at 19.5 μg/ml. 6.5 μg/ml and 1.95 μg/ml dissolved in 15% Ethanol/HBSS. Final concentrations will be 1.95 μg/ml (15 μM), 0.65 μg/ml (5 μM) and 0.195 μg/ml (1.5 μM).
(§5) The medium for the propagation of the each of the cells lines is given above. Each medium was prepared following the ATCC/ECACC instructions and supplemented with penicillin-streptomycin solution (10 ml per litre). FBS (at 10%) was added just before use.
• 1. […]
This is another data set of the same source.

The subject of assay [3] is human gastric carcinoma cell line (NCI-N87). The experiment in a line: MTT anti-proliferative assay, NCI-N87 (Examples 3-12). The note with it: for % stim. / Mean OD (570 nm) / inhibition at 200 µg/mL / % inhibition: 200 μg/ml; for % stim. / Mean OD (570 nm) / % inhibition: 48 hours. The procedure:
as §1, §2, §3, §4, §5
• 1. […]

Assay [4] has as its system human colon cancer cell line (HCT-116). Description: MTT anti-proliferative assay, HCT-116 (Examples 3-12). The procedure:
as §1, §2, §3, §4, §5
• 1. […]

Assay [5] has as its system human colorectal adenocarcinoma cells (DLD-1). Description: MTT anti-proliferative assay, DLD-1 (Examples 3-12). The following applies: for % stim. / Mean OD (570 nm) / inhibition at 200 µg/mL / % inhibition: 200 μg/ml; for % stim. / Mean OD (570 nm) / % inhibition: 48 hours. The procedure:
as §1, §2, §3, §4, §5
• 1. […]

Where [6] appears, read: Examples 3-12, 200 μg/ml, 48 hours.
The mark [7] stands for this setting: Homo sapiens, KYSE-30, 48 h, Examples 3-12, 200 μg/ml, 48 hours.
Where [8] appears, read: Homo sapiens, HCT-116, 48 h, 200 μg/ml.

As usually defined, the % inhibition is the drop in the measured response relative to a control, in per cent. Low values mean little suppression, high ones strong suppression. As a reminder, the inhibition is the share of the control response that was lost under treatment. A higher inhibition goes with strong suppression. For `O=C1C[C@@H](c2ccccc2)Oc2cc(O)cc(O)c21` [Pinocembrin, reference compound], the “% inhibition” value in assay [1] (Example 13, 100 μg/ml) was determined as 50.26%. Moreover, the “Mean OD (570 nm)” value is recorded as 0.1668 in assay [1] (Example 13, 100 μg/ml); 0.0225 in assay [2] (setting [6]); 0.1214 in assay [3]; 0.0045 in assay [4] (200 μg/ml, 48 hours); 0.0341 in assay [5]. Further, the inhibition at 100 µg/mL in assay [1] (Homo sapiens, KYSE-30, Example 13, 100 μg/ml) is 50.3%. The “% stim.” value in assay [2] (setting [6]) is 0%; in assay [3], 0%; in assay [4] (200 μg/ml, 48 hours), 0%; in assay [5], 0%. For the same compound, the inhibition at 200 µg/mL in assay [2] (setting [7]) turned out to be 96.3%; in assay [3] (Homo sapiens, NCI-N87, 48 h) it was 72.5%; in assay [4] (setting [8]), 99.1%; in assay [5] (Homo sapiens, DLD-1, 48 h), 91.7%.
Take `O=c1[nH]cc(F)c(=O)[nH]1` [Sample 5-FU, 5-fluorouracil, reference compound]: the inhibition at 0.65 µg/mL was 39.4% in assay [1] (Homo sapiens, KYSE-30, 48 h, Examples 3-12, 0.65 μg/ml, 48 hours); 16.6% in assay [2] (Homo sapiens, KYSE-30, Example 13, 0.65 μg/ml); 17.2% in assay [3] (Homo sapiens, NCI-N87, 48 h, 0.65 μg/ml); 54% in assay [4] (Homo sapiens, HCT-116, 48 h, 0.65 μg/ml); 37.3% in assay [5] (Homo sapiens, DLD-1, 48 h, 0.65 μg/ml). The inhibition at 1.95 µg/mL in assay [1] (Homo sapiens, KYSE-30, 48 h, Examples 3-12, 1.95 μg/ml, 48 hours) came out at 47.5%; in assay [2] (Homo sapiens, KYSE-30, Example 13, 1.95 μg/ml) it was 31.5%; in assay [3] (Homo sapiens, NCI-N87, 48 h, 1.95 μg/ml), 16.2%; in assay [4] (Homo sapiens, HCT-116, 48 h, 1.95 μg/ml), 57.3%; in assay [5] (Homo sapiens, DLD-1, 48 h, 1.95 μg/ml), 41.6%. Further, the inhibition at 0.195 µg/mL in assay [2] (Homo sapiens, KYSE-30, 48 h, Examples 3-12, 0.195 μg/ml, 48 hours) turned out to be 23.8%; in assay [2] (Homo sapiens, KYSE-30, Example 13, 0.195 μg/ml) it was 3.41%; in assay [3] (Homo sapiens, NCI-N87, 48 h, 0.195 μg/ml), 7.52%; in assay [4] (Homo sapiens, HCT-116, 48 h, 0.195 μg/ml) it was 33.9%; in assay [5] (Homo sapiens, DLD-1, 48 h, 0.195 μg/ml), 26.5%.
Take `COc1cc(O)c2c(=O)cc(-c3ccccc3)oc2c1` [Tectochrysin, tectochrysin]: the “% inhibition” value was 87.6% in assay [2] (setting [6]); 54.0% in assay [3]; 90.1% in assay [4] (200 μg/ml, 48 hours); 92.8% in assay [5].
With `O=C(O)/C=C/c1ccc(O)cc1` [p-coumaric acid, para-coumaric acid, reference compound], the “% stim.” value in assay [2] (setting [6]) is listed as 0%; in assay [3], 0%; in assay [4] (200 μg/ml, 48 hours) it was 2.6%; in assay [5], 0%. The “Mean OD (570 nm)” value in assay [2] (setting [6]) amounted to 0.3243; in assay [3], 0.3652; in assay [4] (200 μg/ml, 48 hours) it was 0.5216; in assay [5] it was 0.3531. Also, the inhibition at 200 µg/mL in assay [2] (setting [7]) worked out at 46.1%; in assay [3] (Homo sapiens, NCI-N87, 48 h) it was 17.3%; in assay [4] (setting [8]) it was 0%; in assay [5] (Homo sapiens, DLD-1, 48 h), 14.3%. Besides, the “% inhibition” value in assay [3] stood at 17.31%; in assay [5], 14.34%.

Source of the values: US20160030364A1, “Therapeutic Compositions and Uses Thereof” (MANUKA HEALTH NEW ZEALAND LIMITED, priority 2013, published 2016).
